Patent publication US6716849B1, “Substituted phenylcyclohexane carboxylic acid amides that have an adenosine uptake inhibiting effect” (Bayer Aktiengesellschaft, priority 2001, dated 2004)
Values after ≈ are worked out from the molar mass of the structure shown.

Columns and labels:
[1] = target: T1, adenosine transport protein from calf cortex (Bos taurus, UniProt A0ACM8Q8F7); test: Binding to an adenosine transport protein from calf cortex (displacement of radio-labelled NBTI); conditions: membrane preparation of cerebral calf cortex, read-out: Ki, inhibition of NBTI-binding
T1 construct: a membrane preparation of cerebral calf cortex is used, which expresses the relevant adenosine transporter; from tissue; host or cells: cerebral calf cortex, membrane preparation
T1 sequence (A0ACM8Q8F7 1-456): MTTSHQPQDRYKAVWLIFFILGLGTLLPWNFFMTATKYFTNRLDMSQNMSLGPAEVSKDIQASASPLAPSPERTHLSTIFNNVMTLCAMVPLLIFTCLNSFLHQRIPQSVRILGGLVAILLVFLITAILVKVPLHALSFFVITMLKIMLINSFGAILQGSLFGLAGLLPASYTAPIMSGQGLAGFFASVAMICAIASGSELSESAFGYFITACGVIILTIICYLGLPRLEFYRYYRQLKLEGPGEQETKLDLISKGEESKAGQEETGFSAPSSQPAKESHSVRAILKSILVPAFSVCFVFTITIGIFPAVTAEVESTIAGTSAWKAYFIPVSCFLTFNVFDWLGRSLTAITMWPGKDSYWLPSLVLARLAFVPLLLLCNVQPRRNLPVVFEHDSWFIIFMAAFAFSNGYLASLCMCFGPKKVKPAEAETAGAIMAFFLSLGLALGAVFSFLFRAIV
Description: 2. Binding of the Compounds According to the Invention to an Adenosine Transport Protein From Calf Cortex
The ability of substances to influence the adenosine uptake system is investigated firstly by determining the binding affinity of selected substances to an adenosine transport protein of the CNS and secondly by determining the inhibiting effect of the substances on functional adenosine uptake.
For the binding test, a membrane preparation of cerebral calf cortex is used, which expresses the relevant adenosine transporter. The binding affinity (Ki value) is determined by measuring the displacement of a specific radio-labelled ligand [nitrobenzylthioinosine (NBTI)] from the binding site in question by test substances. The binding site is the binding site on the transport protein which is relevant for the actual transport process. Thus, binding of test substances in this experiment results in a quantifiable release of bound radioactive NBTI which makes determination of the Ki value possible. (J. Neurochemistry 1982,39, 184-191).

subdural haematoma (SDH) = test: Subdural haematoma in rats (SDH), infarct volume; format: in vivo; conditions: rat SDH, 0.001 mg/(kg×h) i.v. infusion
Protocol: The neuroprotective activity of the compounds according to the invention was determined in the animal model of transient occlusion of the middle cerebral artery (tMCA-O) and the subdural haematoma (SDH). 5. Subdural Haematoma in Rats (SDH) This rodent model (rat) imitates pathophysiology and cerebral pathology of the blunt skull-brain trauma with subdural hemorrhage and development of a subdural haematoma in man. (Neurosurgery 190, 27,433-439). Under anaesthesia, the animals are unilaterally injected subdurally with their own blood. Under the haematoma, an infarct forms. The substance is administered according to different schedules and via different administration routes (i.v., i.p.). The size of the infarct is determined as described in the model of the transient focal ischaemia in rats (tMCA-O).

[2] = test system: transient occlusion of the middle cerebral artery (tMCA-O); test: tMCA-O: transient occlusion of the middle cerebral artery, infarct volume; format: in vivo; conditions: rat tMCA-O, 0.001 mg/(kg×h) i.v. infusion, begun at start of reperfusion, evaluated after 2 days
Protocol: The neuroprotective activity of the compounds according to the invention was determined in the animal model of transient occlusion of the middle cerebral artery (tMCA-O) and the subdural haematoma (SDH). […] Under general anaesthesia (inhalation anaesthesia with isoflurane), the hairs in the lower anterior neck region are shaved off, in the dorsal position, the head is fixed, the skin is disinfected and the neck area is opened in the middle along the trachea. The right lateral neck muscles are severed bluntly and, together with the skin, pulled to the side (retractors) so that the common carotid artery is clearly visible. The common carotid artery is exposed towards the head up to the point where it branches into the internal carotid artery and the external carotid artery. Using surgical suture material, the common carotid artery (near the thorax) and the external carotid artery are tied off. Using a microclamp; the internal carotid artery is closed temporarily. […] After 2 days of post-operative survival, the volume of the cerebral infarct is determined with the aid of a computer-supported image analysis system using preproduced series of histological brain sections. The size of the infarct is evaluated differentially by cortex, striatum, hippocampus and other brain areas.

[3] = Determination of the solubility (precipitation method, physiological saline, HPLC); format: physicochemical; conditions: saline or isotonic, kinetic from dmso stock, 25° C., 24 hours equilibration
Protocol: 1. Determination of the Solubility
To determine the solubility, a precipitation method was used:
10 mg of the test substance are completely dissolved in 50 μl of DMSO (stock solution). 20 μl of this solution are added to 2000 μl of physiological saline. This solution, in turn, is shaken at 25° C. in a Thermomixer Comfort (from Eppendorf) at 1400 rpm for 24 hours for equilibration.
The precipitated fractions of the test substance are centrifuged off using a Biofuge 15 from Heraeus at 14,000 rpm for 5 min. 1300 μl of the supernatant are once more centrifuged using a Microfuge from Beckmann at 45,000 rpm=125,000 g.
10 μl of this centrifigation supernatant are then diluted with 1000 μl of DMSO, and this solution is measured by HPLC (Hewlett Packard 1090, method, gradient from 100% PBS buffer pH=4 to 10% buffer/90% acetonitrile over a period of 15 min, column: RPI8; PBS buffer pH=4 is a physiological saline solution adjusted to pH=4 using phosphate buffer).
Using a calibration curve, the measured peak area of the HPLC measurement is converted into substance concentration. For the calibration curve, 20 μl of the stock solution are diluted successively with DMSO such that 5 concentrations of 2.5 mg/l to 2000 mg/l result. These solutions are likewise measured by HPLC (see method above), and the peak areas are plotted as a function of the concentrations.

Structure (SMILES)	Ki [1] [nM]	reduction of the infarct volume in comparison to control animals (subdural haematoma (SDH)) [%]	reduction of the infarct volume in comparison to control animals [2] [%]	solubility at 24 h [3] [mg/mL]
NC(=O)[C@@H](NC(=O)[C@@H]1CCCC[C@H]1c1ccc(Cn2c(CN3CCOCC3)nc3cccnc32)cc1)c1ccccc1 [Example 3]	2	30	81	0.176 (≈ 311 µM)
Cl.NC(=O)[C@@H](NC(=O)[C@@H]1CCCC[C@H]1c1ccc(Cn2c(CN3CCOCC3)nc3ncccc32)cc1)c1ccccc1 [Example 4, (S)-N-{{(1R,2R)-{4-{2-[2-(Morpholin-4-yl-methyl)-1H-pyrido[2,3-d]imidazol-1-yl]methyl}-phenyl}-cyclohex-1-yl}carbonyl}-phenylglycinamide hydrochloride]		45		
CN1CCN(c2nc3ccccc3n2Cc2ccc([C@@H]3CCCC[C@H]3C(=O)N[C@H](C(N)=O)c3ccccc3)cc2)CC1 [Example 5, (S)-N-{{(1R,2R)-2-{4-{[2-(4-Methyl-piperazin-1-yl)benzimidazol-1-yl]methyl}-phenyl}-cyclohex-1-yl}carbonyl}-phenylglycinamide]	2		91	0.016 (≈ 28.3 µM)
